The source of these data is patent publication US20130101684A1, “Compounds, Compositions, And Methods For Reducing Or Eliminating Bitter Taste” (Chromocell Corporation, priority 2010, published 2013).

Holding throughout (assay type): in vivo, humans
Assay [1] deals with bitter taste of potassium lactate foodstuffs. As to the kind of experiment: Two-alternative forced choice (2AFC) sip and spit test of potassium lactate turkey foodstuff slurries. As to conditions: turkey slurry with potassium lactate (KLac) 4.5%, 1% EtOH, 2AFC vs KLac slurry standard, dash = at none of the tested conc.; for minimal effective concentration: Homo sapiens. On the procedure:
In a blind taste test, panelists received two portions of turkey slurry—one portion being the KCl foodstuff slurry standard and the other being one of the KCl test foodstuff slurries (each prepared as described in Example 5). The panelists tasted each of the portions by sipping and spitting. Each sample was tested in 2-4 discrete taste test experiments. Panelists were asked to rinse with water, eat a cracker, and wait about 10 minutes between samples. In each case, the panelists were asked to compare the bitter taste of the two turkey samples to each other (i.e. panelists were asked to indicate which sample was less bitter). Edible potassium lactate food compositions (“potassium lactate test foodstuff slurries”) were prepared as follows, Dehydrated, salt-free turkey powder was weighed and mixed with various amounts of potassium lactate and/or sodium lactate and then solubilized with boiling water to create a homogenized solubilized turkey slurry. Varying amounts of the test compounds were dissolved in an amount of ethanol or water (depending on the solubility of the compound) to create a 5 mg/mL stock compound solution. An amount of this stock compound solution was then added to the turkey slurry. Enough EtOH is then added to the resulting stock compound/turkey slurry so that the final slurry contains 1% EtOH. The final slurry was again homogenized by boiling and mixing and allowed to cool to yield the final slurry for taste testing. Potassium lactate foodstuff slurry standards were similarly prepared without any test compound. […] The effect of the test compounds on the perception of the bitter taste of potassium lactate foodstuffs in humans was evaluated using the two-alter native-forced-choice “sip and spit” test described in Example 6.

Assay [2] deals with bitter taste of an aqueous solution of KCl. As to the kind of experiment: Sip and spit taste test of aqueous KCl test solutions, bitterness rated 0-15 against KCl solution standards. The conditions noted are these: aqueous KCl 4.85 g/L, 1% EtOH, human panel, vs KCl solution standard, dash = at none of the tested conc. On the procedure: Edible KCl solution compositions (“KCl test solutions”) were prepared by first dissolving varying amounts of the test compounds in an amount of ethanol or water (depending on the solubility of the compound) to create a 5 mg/mL stock compound solution. An amount of this stock compound solution is then added to an aqueous KCl solution. Enough EtOH is then added to the resulting stock compound/KCl solution so that the final KCl test solution contains 1% EtOH. KCl solution standards were similarly prepared by dissolving various amounts of KCl in water and ethanol without adding any test compound. […] The effect of the test compounds on the perception of the bitter taste of an aqueous solution of KCl in humans was evaluated using a “sip and Spit” test as follows. A set of KCl solutions standards was developed and each standard solution was assigned a bitterness taste score of 0-15 (corresponding to aqueous KCl concentrations of 0 mM-120 mM). Panelists were trained to recognize these standards. In addition, before each day of testing, panelists were tested to see if they could determine differences in taste between the standard solutions, if a panelist was unable to recognize a change in KCl concentration, they were excluded from the panel for that day. In a blind taste test, panelists were asked to compare the bitter taste of a small quantity (e.g. 8 ml) of each of the KCl Test Solutions to the taste of a KCl solution standard, without swallowing (see, e.g., Table 1). Specifically, panelists were asked to rate the bitterness of each KCl Test Solution on a scale of 0-15 using the same scale developed for the KCl solution standards. Each sample was tested in 2-4 discrete taste test experiments. Panelists were asked to rinse with water, eat a cracker, and wait approximately 10 minutes between samples.

The test system of assay [3] is bitter taste of an aqueous solution of potassium lactate. As to the kind of experiment: Sip and spit taste test of aqueous potassium lactate test solutions. The conditions noted are these: aqueous potassium lactate (KLac) 41 g/L, 1% EtOH, human panel, dash = at none of the tested conc. Here is the method: A set of KCl solutions standards was developed and each standard solution was assigned a bitterness taste score of 0-15 (corresponding to aqueous KCl concentrations of 0 mM-120 mM). Panelists were trained to recognize these standards. In addition, before each day of testing, panelists were tested to see if they could determine differences in taste between the standard solutions, if a panelist was unable to recognize a change in KCl concentration, they were excluded from the panel for that day. In a blind taste test, panelists were asked to compare the bitter taste of a small quantity (e.g. 8 ml) of each of the KCl Test Solutions to the taste of a KCl solution standard, without swallowing (see, e.g., Table 1). Specifically, panelists were asked to rate the bitterness of each KCl Test Solution on a scale of 0-15 using the same scale developed for the KCl solution standards. Each sample was tested in 2-4 discrete taste test experiments. Panelists were asked to rinse with water, eat a cracker, and wait approximately 10 minutes between samples. Edible potassium lactate solution compositions (“potassium lactate test solutions”) were prepared by first dissolving varying amounts of the test compounds in an amount of ethanol or water (depending on the solubility of the compound) to create a 5 mg/mL stock compound solution. An amount of this stock compound solution is then added to an aqueous potassium lactate solution. Enough EtOH is then added to the resulting stock compound/potassium lactate solution so that the final potassium lactate test solution contains 1% EtOH. Potassium lactate solution standards were similarly prepared by dissolving various amounts of potassium lactate in water and ethanol without adding any test compound. […] The effect of the test compounds on the perception of the bitter taste of an aqueous solution of potassium lactate in humans was evaluated using the “sip and spit” test described in Example 2.

The subject of assay [4] is bitter taste of KCl foodstuff slurries. Nature of the assay: Two-alternative forced choice (2AFC) sip and spit test of KCl turkey foodstuff slurries. As to conditions: turkey slurry with KCl 1.6%, 1% EtOH, 2AFC vs KCl slurry standard, dash = at none of the tested conc.; for minimal effective concentration: Homo sapiens. On the procedure: Edible KCl food compositions (“KCl test foodstuff slurries”) were prepared as follows. Dehydrated, salt-free turkey powder was weighed and mixed with various amounts of KCl and/or NaCl and then solubilized with boiling water to create a homogenized solubilized turkey slurry. Varying amounts of the test compounds were dissolved in an amount of ethanol or water (depending on the solubility of the compound) to create a 5 mg/mL stock compound solution. An amount of this stock compound solution was then added to the turkey slurry. Enough EtOH is then added to the resulting stock compound/turkey slurry so that the slurry contains 1% EtOH. The slurry was again homogenized by boiling and mixing and allowed to cool to yield the final KCl test foodstuff slurry for taste testing. KCl foodstuff slurry standards were similarly prepared without any test compound. […] The effect of the test compounds on the perception of the bitter taste of KCl foodstuff slurries in humans was evaluated using a two-alternative-forced-choice “sip and spit” test as follows. In a blind taste test, panelists received two portions of turkey slurry—one portion being the KCl foodstuff slurry standard and the other being one of the KCl test foodstuff slurries (each prepared as described in Example 5). The panelists tasted each of the portions by sipping and spitting. Each sample was tested in 2-4 discrete taste test experiments. Panelists were asked to rinse with water, eat a cracker, and wait about 10 minutes between samples. In each case, the panelists were asked to compare the bitter taste of the two turkey samples to each other (i.e. panelists were asked to indicate which sample was less bitter).

[5] abbreviates: read-out: Conc. at Which At Least 50% of Panelist Discerned Decrease in Bitter Taste.
Where [6] appears, read: read-out: Conc. Where Decrease in Bitter Taste Discerned and p ≦ 0.1.
The mark [7] stands for this setting: read-out: Conc. Where Decrease in Bitter Taste Was Discerned.
[8] abbreviates: read-out: Conc. at Which At Least 50% of Panelist Discerned Decrease in Bitter Taste and p ≦ 0.1.

SMILES strings stand for the structures. Read-outs that look alike come from different tables or passages of the source.

`CCn1ncc(Br)c1C(=O)Nc1ccccc1C(=O)OC` [Compound 23]: in assay [1], the “Conc. at Which At Least 50% of Panelist Discerned Decrease in Bitter Taste and p ≦ 0.1” value was found to be 1 ppm. Moreover, in assay [2], the “Conc. Where Decrease in Bitter Taste Discerned and p ≦ 0.1” value came to 40 ppm; the “Conc. Where Decrease in Bitter Taste Was Discerned” value is 40 ppm.
Take `CCC(=O)Nc1ccc(OC)c(Cl)c1` [Compound 51]: the minimal effective concentration was found to be 10 µg/mL in assay [1] (setting [5]), 15 µg/mL in assay [2] (setting [6]) and 15 µg/mL in assay [2] (setting [7]).
Regarding `COC(=O)c1cccc2c1NC(c1ccc(Cl)cc1Cl)C1CC=CC21` (stereo not drawn) [Compound 38], the minimal effective concentration is 30 µg/mL in assay [1] (setting [5]), 1 µg/mL in assay [2] (setting [6]) and 1 µg/mL in assay [2] (setting [7]).
Take `CCCC(=O)Nc1ccc(OC)c(Cl)c1` [Compound 49]: the minimal effective concentration in assay [1] (setting [5]), in assay [1] (setting [8]), in assay [2] (setting [6]), in assay [2] (setting [7]), in assay [3] (setting [6]) and in assay [3] (setting [7]) was 30 µg/mL in each case. The minimal effective concentration in assay [4] (setting [5]) and in assay [4] (setting [8]) was 1 µg/mL throughout.
Turning to `COC(=O)c1ccccc1NC(=O)c1c(I)cnn1C` [Compound 24], the figures for the minimal effective concentration in assay [1] (setting [8]) and in assay [4] (setting [8]) were 30 µg/mL and 10 µg/mL, respectively.
As to `Cc1ccc(NC(=O)C2COc3ccccc3O2)cc1Cl` (stereo not drawn) [Compound 56], the “Conc. at Which At Least 50% of Panelist Discerned Decrease in Bitter Taste” value in assay [1] came to 1 ppm. In assay [1], the “Conc. at Which At Least 50% of Panelist Discerned Decrease in Bitter Taste and p ≦ 0.1” value was determined as 1 ppm. Besides, the figures for the “Conc. Where Decrease in Bitter Taste Discerned and p ≦ 0.1” value in assay [2] and in assay [3] were 1 ppm and 10 ppm, respectively.
As for `O=C(O)c1cccc2c1NC(c1cccc(Br)c1)C1CC=CC21` (stereo not drawn) [Compound 37], the figures for the minimal effective concentration in assay [1] (setting [8]), in assay [2] (setting [6]) and in assay [2] (setting [7]) were 10 µg/mL, 1 µg/mL and 1 µg/mL, respectively.
`Cc1ccc(NC(=O)CCOc2ccccc2)cc1Cl` [Compound 53]: the “Conc. at Which At Least 50% of Panelist Discerned Decrease in Bitter Taste” value in assay [1] and in assay [4] was 30 ppm in each case. Besides, the “Conc. Where Decrease in Bitter Taste Discerned and p ≦ 0.1” value in assay [2] is recorded as 25 ppm; in assay [3], 1 ppm. Moreover, the “Conc. Where Decrease in Bitter Taste Was Discerned” value is given as 25 ppm in assay [2] and 1 ppm in assay [3]. In assay [4], the “Conc. at Which At Least 50% of Panelist Discerned Decrease in Bitter Taste and p ≦ 0.1” value is reported as 30 ppm.
As to `CCOC(=O)c1ccccc1NC(=O)c1c(Cl)cnn1C` [Compound 26], the minimal effective concentration in assay [1] (setting [5]) stood at 30 µg/mL; in assay [3] (setting [6]), 1 µg/mL; in assay [4] (setting [8]) it was 1 µg/mL.
For `CCn1cc(Br)c(C(=O)Nc2ccccc2C(=O)OC)n1` [Compound 25], the minimal effective concentration in assay [1] (setting [5]) turned out to be 1 µg/mL; in assay [3] (setting [6]), 10 µg/mL; in assay [3] (setting [7]) it was 10 µg/mL.
